{
  "source": "patent US5571799A",
  "about": "“(2'-5') oligoadenylate analogues useful as inhibitors of host-v5.-graft response” (Basco, Ltd., priority 1994, dated 1996)",
  "key": {"[1]": {"tested_on": "transplanted kidney", "test": "Kidney allotransplantation using chinchilla rabbits", "format": "in vivo", "experimental": "Kidney allotransplantations were performed using chinchilla rabbits of the same sex, weighing 5.0-6.5 kg. In the series of 10 rabbits, allogenic kidneys were transplanted on the neck vessels, rabbit ureter was taken outside for performing ureterocutaneostoma. Anastomosis was performed on the donor kidney vessels according to the \"end-into-end\" pattern, with the external carotid artery and the jugular vein joined by means of their preliminary cannulation and fixation by the cannulae with the recipient vessels.\nThe recipient rabbits had combined anesthesia: intravenous introduction of hexenal at a rate of 10 mg per 1.0 kg. body weight was supplemented by local anesthesia with 0.25-0.5% novocaine solution up to 15.0 ml. An intact rabbit served as a kidney donor, whose kidneys were exposed by means of transperitoneal access and perfused with 500 ml of Eurocollins solution, in situ. Simultaneously with the kidney perfusion, kidney vessels and ureters were utilized, the latter being cut at the level of iliac vessels. Having performed perfusion without extracting a kidney from the donor, kidney vessels were cannulated from the aorta and vena cava, the canulae were fixed with separate ligatures and the vessels were released. After this, the kidney was extracted.\nThe organs were preserved at the temperature of melting ice. Then we proceeded directly to kidney transplantation. The preservation lasted for about 2.5-3.0 hours and thermal ischemia (secondary) duration was 30-40 minutes.\nImmunosuppression was performed by IV injection of (2'-5')A2 Ar-epoxy at a dose of 5 μg per 1.0 kg body weight at 0.1 ml of the physiologic solution daily until the conclusion of the experiment. During the first two weeks of the post-operative period, blood was taken for immunological analysis; BTR with PHA and Concanavalin A were tested.\nThe results of the experiments were evaluated clinically, by the presence or absence of urination from the ureterocutaneostoma and by the behavior of the experimental animals."}, "[2]": {"tested_on": "IgG, IgA, IgM", "test": "Immunoglobulins in monkeys after kidney transplantation", "format": "in vivo, Macaque Rh. monkeys", "settings": "50 μg/kg IV; for IgA: 2 days pre-op. 0.4; for IgM: 2 days pre-op. 0.8; for IgG: 2 days pre-op. 13", "experimental": "Serum levels of IgG, IgA, IgM were determined by radial immunodiffusion using antisera against human immunoglobulin A, M, G. The amount of interferon and interleukine-II were determined by the method of Lopez-Botet M. et al., 1982.\n(§1) The experiments were performed on 4 year-old Macaque Rh. monkeys. Each cohort consisted of 3 animals. […] The results of the experiments were evaluated clinically: by the presence or absence of urination from the ureterocutaneostoma.\n(§2) During our experiments we have divided monkeys into two groups, three monkeys to each group. For the first group (2'-5')A2 Ar-epoxy was administered intravenously at concentration of 50 μg/kg two days before the operation and at the second, sixth, and twelfth day after the operation and then every sixth day. […] After transplantation kidney functions were restored within 10 hours."}, "[3]": {"tested_on": "T-suppressors", "test": "T-suppressors in monkeys after kidney transplantation", "format": "in vivo, Macaque Rh. monkeys", "settings": "for T-suppress: 50 μg/kg IV, 2 days pre-op. 44", "experimental": "FLOW CYTOFLUOROGRAFIC ANALYSIS OF LYMPHOCYTE SUBSETS\nBlood samples (100 μl of whole blood) were placed into a 12×17 tube. To these cells 20 μl of purified monoclonal antibodies were added with specificity for human cytotoxic/suppressor cells anti-Leu-2a (CD8), human helper/inducer anti-Leu-3a (CD4) and FITC conjugated monoclonal antibodies with specificity for natural killer cells-anti-Leu11c (CD16) (Becton Dickinson, San Jose). After 30 minutes incubation on ice, the cells were washed once and 20 μl of goat-antimouse chain phycoerythrin (Sigma P1286) conjugate were added to the tube with anti-Leu-2a and anti-Leu-3a monoclonal antibodies.\nAfter erythrocyte lysing with FACS lysing solution (Becton Dickinson, San Jose) the cells were analyzed on FACScan flow cytometer (Becton Dickinson, San Jose) with scatter gate set on lymphocyte fraction.\nas §1\nAfter intravenous anesthesia with Ketalar®, an extraperitoneal access to the left kidney was performed through layer by layer cuts to the left lumbar region. The kidney was excised from the surrounding tissues. A clamp was applied to the vessel limb; the artery, the vein and the ureter each were prepared for anastomosis separately. The kidney was excised and transferred for hypothermal conservation in Collins' solution.\nThe donor kidney was transplanted into the recipient. […] anastomosis was performed: the graft arteries and veins attached to the appropriate recipient kidney vessels through plastic tubes. The kidney having been resuscitated by in blood flow, acquired the normal color and turgor. Additional hemostasis in the wound was performed. Ureterocutaneostomy was performed, which was followed by applying layer-upon-layer sutures on the wound and its aseptic dressing.\nThe monkeys were narcotized by means of the intravenous anesthesia with Ketalar® and subjected to medial laparotomy from the xiphoid down to the pubic joint. Access to the left Kidney was made extraperitoneally. The kidney was teased from the surrounding tissues. A clamp was put on the vessel limb; the artery, the vein and the ureter were dressed separately; the kidney was cut and transferred for hypothermal conservation in Collins' solution.\nThe internal iliac artery and the external iliac vein were extracted extra-peritoneally, immobilized and prepared for anastomosis. The donor kidney was transferred to the recipient. Vessel anastomosis was performed: the graft arteries were anastomosed with the internal iliac artery according to the end-to-end method and the graft veins were anastomosed with the external iliac vein according to the end-to-side method. The kidney having been engaged in blood flow, acquired a normal color and turgor. Bleeding on the line of the arterial anastomosis was stopped by making additional sutures. Ureterocutaneostomy was performed. The abdominal cavity was lavaged with the solution of disodium carbenicillin. Layer-upon-layer sutures on the wound were applied. Aseptic dressing was performed.\nas §2\nThe administration schedule of (2'-5')A2 Ar-epoxy was modified slightly for the second group of monkeys. The preparation was injected two days before the operation and every other day at a concentration of 50 μg/kg during the entire post-transplantation period. […] The number of T-helpers dropped correspondingly from 37% to 7%. […] During the entire postoperative period, this activity tendency continues."}},
  "note": "Entries after “also recorded” stand apart in the source; their conditions may differ.",
  "data": [
    {"substance": "Adenylyl (2'-5')adenylyl (2'-5')-9-(2,3-anhydro-β-D-ribofuranosyl) adenine disodium salt [(2'-5')A2 Ar-epoxy]", "values": [
      {"measurement": "animals with positive results (graft function)", "setting": "[1]; 10 rabbits, 5 μg/kg daily IV", "result": "four"},
      {"measurement": "rabbits with no graft function in the early postoperative period", "setting": "[1]; 10 rabbits, probably vesicular thrombosis", "result": "four"},
      {"measurement": "time to death after nephrectomy", "setting": "[1]; another rabbit", "result": "≤ 48", "unit": "h"},
      {"measurement": "rabbits with generalized viral infection of the respiratory tract", "setting": "[1]; fatal", "result": 2, "unit": "rabbits"},
      {"measurement": "duration of function of the grafted kidney", "setting": "[1]; first group, four animals, 5 μg/kg daily IV", "result": "at least 2 months"},
      {"measurement": "death after transplantation (wound suppuration, sepsis)", "setting": "[1]; fourth group, single rabbit", "result": "death within the first week after transplantation"},
      {"measurement": "graft function after ablation of contralateral kidney, in words", "setting": "[1]; one rabbit, 1 month after operation", "result": "the grafted kidney continued functioning"},
      {"measurement": "period of normal functioning of the transplanted kidney", "setting": "[1]; rabbits, IV 5 μg/kg (summary)", "result": 3, "unit": "months"},
      {"measurement": "IgA", "setting": "[2]; day 5 post-op.", "result": 2.07, "unit": "g/L"},
      {"measurement": "IgM", "setting": "[2]; day 5 post-op.", "result": 0.75, "unit": "g/L"},
      {"measurement": "IgG", "setting": "[2]; day 5 post-op.", "result": 12.2, "unit": "g/L"},
      {"measurement": "IgA", "setting": "[2]; day 8 post-op.", "result": 2.5, "unit": "g/L"},
      {"measurement": "IgM", "setting": "[2]; day 8 post-op.", "result": 0.86, "unit": "g/L"},
      {"measurement": "IgG", "setting": "[2]; day 8 post-op.", "result": 12.75, "unit": "g/L"},
      {"measurement": "T-suppress", "setting": "[3]; day 1 post-op.", "result": 40.6, "unit": "%"},
      {"measurement": "T-suppress", "setting": "[3]; day 5 post-op.", "result": 44, "unit": "%"},
      {"measurement": "T-suppress", "setting": "[3]; day 8 post-op.", "result": 47, "unit": "%"},
      {"measurement": "T-suppress", "setting": "[3]; day 13 post-op.", "result": 47.7, "unit": "%"},
      {"measurement": "T-suppress", "setting": "[3]; day 18 post-op.", "result": 57.5, "unit": "%"},
      {"measurement": "effect on T-suppressors in transplanted animals, in words", "setting": "[3]; post-transplantation, 50 μg/kg, disodium salt", "result": "stimulates the number of T-suppressor cells in transplanted monkeys; also recorded: stimulates somewhat the number of T-suppressors"},
      {"measurement": "quantity of T-suppressors", "setting": "[3]; second group, 50 μg/kg every other day, 7 days after surgery, presurgical 44%", "result": 49, "unit": "%"}
    ]}
  ]
}
